According to patent US20060269482A1 (priority 2005, published 2006):
Read-outs that look alike come from different tables or passages of the source.

Key:
[1] = Plasma and tumor exposures after a single oral dose; type: in vivo, rat
Procedure: Female Fischer rats obtained from Charles River Laboratories were used when they were ˜13-15 weeks old and weighed ˜150 grams. All animals were examined prior to the initiation of studies to ensure that they were healthy and acclimated to the laboratory environment. Autoclaved water and irradiated food were provided ad libitum, and the animals were maintained in a 12 hour light and dark cycle.
The test compound COMPOUND A, [4-amino-2-(1-methanesulfonylpiperidin-4-ylamino) pyrimidin-5-yl]-(2,3-difluoro-6-methoxyphenyl)methanone, was synthesized by Discovery Chemistry, Hoffmann-La Roche Inc. COMPOUND A was formulated as a suspension in 1% Klucel LF with 0.1% Tween 80 for oral injection. Compound was stored at 4° C. and vortexed immediately prior to administration.
(§1) The dose selected was 80 mg/kg, determined to be an efficacious dose in this animal model. Tumor growth inhibition in the MTLn3 xenograft model after 2 to 3 weeks of oral dosing at 80 mg/kg once weekly averaged 90% with 2/10 complete regressions. COMPOUND A was dosed on day 10 post implantation of cells, at which time the tumors were 100-200 mm^3 in size. In this pharmacokinetic/pharmacodynamic experiment, plasma and tumors were collected at 1, 2, 6, 24 and 72 hours post dosing of a single oral dose of COMPOUND A. Tumors were removed and immediately snap frozen in liquid nitrogen and stored at −80° C. until drug concentration analysis. Untreated and vehicle treated control groups were included in the analysis. Concentrations of COMPOUND A in plasma and tumors were determined in the same three animals per time point. Whole blood was also collected for analysis of Rb phosphorylation. Peripheral blood mononuclear cells (PBMCs) were isolated, stimulated ex vivo with mitogen and analyzed by Western blot as described below.
In a second pharmacodynamic study, plasma concentrations of COMPOUND A were similarly analyzed as described above, and Rb phosphorylation in both PBMCs and tumor xenografts treated with a single oral dose of COMPOUND A was examined.
After a single oral dose of 80 mg/kg, plasma and tumor tissues show a similar concentration time profile of COMPOUND A. Maximum concentrations in both plasma and tumor tissue were observed 1 hr post dose. The concentrations in the tumor samples taken from the same animals were approximately 50% of the plasma concentration and at 24 hrs tumor drug levels (164±28 ng/g) approximated plasma exposures at 24 hours (250±74 ng/ml) (FIG. 7). Drug levels in plasma and tumor tissue were measurable up to 24 hrs after dosing in all the animals in PD 664 (3 rats per time point). […] Overall the plasma data seem fairly predictive for tumor concentrations particularly since the extraction of drug from the tumor samples might be less than complete. No drug was detectable in the vehicle group.
Similarly in PD 675, after a single 80 mg/kg oral dose of COMPOUND A, drug was measurable in all the animals up to 6 hrs (339±88 ng/ml) and in ⅔ animals 24 hr and 48 hr after dosing. Mean plasma concentrations were steady from 1-24 hr. No drug was detectable in the vehicle group.

[2] = test system: Rb phosphorylation in rat PBMCs; test: Rb phosphorylation in ex vivo PMA-stimulated rat PBMCs after a single oral dose; settings: single oral dose 80 mg/kg
Procedure: as §1, with “Untreated and vehicle treated control groups were included in the analysis.” left out, “Whole blood was also collected for analysis of Rb phosphorylation.” left out, “below. […]” for “below.”
PBMCs were collected by transferring the cells, including attached cells and those in suspension, into 50 ml tubes. […] Samples were sonicated on ice for 30 seconds, clarified by centrifugation at 16,000×g for 10 minutes at 4° C. and protein concentrations determined using Non-Interfering Protein Assay Kit (Geno Technology Incorporated, Maplewood, Mo.). […] For Western blotting, total Rb was detected using antibody from Pharmingen (BD Bioscience, San Diego, Calif.) at a dilution of 1:2000. […]

MTLn3 cells = test: cell growth inhibition in rat tumor cell line; type: cell-based
[3] = single oral dose 80 mg/kg, rat, PD 664

COc1ccc(F)c(F)c1C(=O)c1cnc(NC2CCN(S(C)(=O)=O)CC2)nc1N [COMPOUND A, [4-amino-2-(1-methanesulfonylpiperidin-4-ylamino)pyrimidin-5-yl]-(2,3-difluoro-6-methoxyphenyl)methanone]
concentration at 6 h ([1]; female, Fischer, rat, plasma, single 80 mg/kg oral dose, PD 675, 6 hrs): 339 ± 88 ng/mL | concentration at 24 h ([1]; female, Fischer, rat, plasma, single oral dose 80 mg/kg, 24 hours, PD 664, read-out: Plasma exposure at 24 hours): 250 ± 74 ng/mL | concentration at 72 h ([1]; female, Fischer, rat, plasma, single oral dose 80 mg/kg, PD 664, one out of three animals measurable): ≥ 12.5 ng/mL | Kp ([1]; female, Fischer, rat, tumor / plasma, single oral dose 80 mg/kg, same animals, PD 664, read-out: Tumor concentration as percent of plasma concentration): ~0.5 | concentration at 24 h ([1]; female, Fischer, rat, tumor, single oral dose 80 mg/kg, 24 hrs, PD 664, read-out: Tumor drug level at 24 hrs): 164 ± 28 ng/g | Time up to which drug levels in plasma and tumor tissue were measurable in all animals ([1]; single oral dose 80 mg/kg, PD 664, 3 rats per time point): up to 24 hrs | Time of maximum concentration in plasma [1, 3]: 1 h | Time of maximum concentration in tumor tissue [1, 3]: 1 h | Total Rb levels in PBMCs ([2]; female Fischer rats): did not appear to decrease | Rb phosphorylation (serine 795) in ex vivo stimulated PBMCs ([2]; female Fischer rats, 2, 6 and up to 24 hours post treatment, Western blot): decrease in Rb phosphorylation | IC50 (MTLn3 cells): 0.17 µM | IC90 (MTLn3 cells): 0.24 µM
